Measured values taken from patent US20250186627A1, “RADIOLABELED COMPOUNDS TARGETING THE PROSTATE-SPECIFIC MEMBRANE ANTIGEN” (PROVINCIAL HEALTH SERVICES AUTHORITY, priority 2022, published 2025).
*1 amine or outer side, *2 acyl side, *3 side chain or, on linkers, in order; H or OH if unused. Where a SMILES comes first, the peptide text is derived from it. [ ]: non-standard residue; d: D form. The star is where a group is joined. ξ: configuration not given here. Butanoyl(4-(4-NO2Ph)) = O=C(CCCc1ccc([N+](=O)[O-])cc1)*; DOTA = O=C(O)CN1CCN(CC(=O)O)CCN(CC(=O)*)CCN(CC(=O)O)CC1; ξAla(9-anthryl) = NC(Cc1c2ccccc2cc2ccccc12)C(=O)O; X2 = O=C(NC(CCCCN*)C(=O)O)NC(CC(F)C(=O)O)C(=O)O; X1 = O=C(C1CCC(CN[*:1])CC1)[*:2]; ξK = NCCCCC(N)C(=O)O

Test system: NRG-mice bearing LNCaP tumors
Assay: Biodistribution (and PET/SPECT imaging) in NRG-mice bearing LNCaP tumors
Format: in vivo
Conditions: Avg
Method: LNCaP cell line was obtained from ATCC (LNCaP clone FGC, CRL-1740). It was established from a metastatic site of left supraclavicular lymph node of human prostatic adenocarcinoma. Cells were cultured in PRMI 1640 medium supplemented with 10% FBS, penicillin (100 U/mL) and streptomycin (100 μg/mL) at 37° C. in a humidified incubator containing 5% CO2. Cells grown to 80-90% confluence were then washed with sterile phosphate-buffered saline (1×PBS pH 7.4) and trypsinization. The collected cells number was counted with a Hausser Scientific (Horsham, PA) Hemacytometer. Approximately 10 million LNCaP cells were inoculated into the left dorsal flank of immunocomprised NRG mice. The tumours were allowed to grow for 4-6 weeks and used for imaging and biodistribution studies when a volume of 200-600 mm^3 was reached.
PET imaging experiments were conducted using Siemens Inveon micro PET/CT scanner. SPECT imaging experiments were conducted using an MILabs micro SPECT/CT scanner. Each tumor bearing mouse was injected 4-6 MBq of ^68Ga or 18.5 MBq of ^177Lu labeled tracer through the tail vein under anesthesia (2% isoflurane in oxygen). The mice were allowed to recover and roam freely in their cage. At pre-defined time point, the mice were sedated again with 2% isoflurane in oxygen inhalation and positioned in the scanner. A 10-min CT scan was conducted first for localization and attenuation correction after segmentation for reconstructing the PET or SPECT images. Then, a 10-min static PET imaging or a one hour (30 min×2 frames) of static SPECT scan was performed to determined uptake in tumor and other organs. The mice were kept warm by a heating pad during acquisition.
For biodistribution studies, the mice were injected with the radiotracer as described above. The mice were anesthetized with 2% isoflurane inhalation, and euthanized by CO2 inhalation. Blood was withdrawn immediately from the heart, and the organs/tissues of interest were collected. The collected organs/tissues were weighed and counted using a Perkin Elmer (Waltham, MA) Wizard2 2480 gamma counter. The uptake in each organ/tissue was normalized to the injected dose (radioactivity) using a standard curve, and expressed as the percentage of the injected dose per gram of tissue (% ID/g).

| SMILES | Biodistribution: Adrenal gland (1 h p.i.) [% ID/g] | Biodistribution: Blood (1 h p.i.) [% ID/g] | Biodistribution: Bone (1 h p.i.) [% ID/g] | Biodistribution: Brain (1 h p.i.) [% ID/g] | Biodistribution: Fat (1 h p.i.) [% ID/g] | Biodistribution: Heart (1 h p.i.) [% ID/g] | Biodistribution: Intestine (1 h p.i.) [% ID/g] | Biodistribution: LNCaP tumor (1 h p.i.) [% ID/g] | Biodistribution: Liver (1 h p.i.) [% ID/g] | Biodistribution: Lungs (1 h p.i.) [% ID/g] | Biodistribution: Muscle (1 h p.i.) [% ID/g] | Biodistribution: Pancreas (1 h p.i.) [% ID/g] | Biodistribution: Salivary gland (1 h p.i.) [% ID/g] | Biodistribution: Seminal gland (1 h p.i.) [% ID/g] | Biodistribution: Spleen (1 h p.i.) [% ID/g] | Biodistribution: Stomach (1 h p.i.) [% ID/g] | Biodistribution: Testes (1 h p.i.) [% ID/g] | Biodistribution: Thyroid (1 h p.i.) [% ID/g] | Biodistribution: Urine (1 h p.i.) [% ID/g] | Biodistribution: kidney (1 h p.i.) [% ID/g] | also measured |
| --- | --- | --- | --- | --- | --- | --- | --- | --- | --- | --- | --- | --- | --- | --- | --- | --- | --- | --- | --- | --- | --- |
| COc1ccc(CCCC(=O)NCC(=O)NC(CCCCNC(=O)CN2CCN(CC(=O)[O-])CCN(CC(=O)[O-])CCN(CC(=O)[O-])CC2)CC(=O)NCC2CCC(C(=O)NC(Cc3c4ccccc4cc4ccccc34)C(=O)NCCCCC(NC(=O)NC(CCCC(=O)O)C(=O)O)C(=O)O)CC2)cc1.[68Ga+3] (centres unmarked) [^68Ga-CCZ02015] | 3.28 | 15.78 | 0.92 | 0.25 | 1.52 | 3.19 | 1.46 | 11.16 | 2.98 | 5.90 | 1.07 | 1.34 | 2.19 | 0.72 | 1.28 | 0.46 | 1.77 | 2.54 | 177.03 | 11.93 | Biodistribution: Adrenal gland (3 h p.i.): 3.36 % ID/g; Biodistribution: Blood (3 h p.i.): 10.81 % ID/g; Biodistribution: Bone (3 h p.i.): 1.20 % ID/g; Biodistribution: Brain (3 h p.i.): 0.19 % ID/g; Biodistribution: Fat (3 h p.i.): 1.04 % ID/g; Biodistribution: Heart (3 h p.i.): 2.55 % ID/g; Biodistribution: Intestine (3 h p.i.): 1.17 % ID/g; Biodistribution: LNCaP tumor (3 h p.i.): 22.60 % ID/g; Biodistribution: Liver (3 h p.i.): 2.13 % ID/g; Biodistribution: Lungs (3 h p.i.): 4.65 % ID/g; Biodistribution: Muscle (3 h p.i.): 1.13 % ID/g; Biodistribution: Pancreas (3 h p.i.): 1.10 % ID/g; Biodistribution: Salivary gland (3 h p.i.): 2.18 % ID/g; Biodistribution: Seminal gland (3 h p.i.): 1.63 % ID/g; Biodistribution: Spleen (3 h p.i.): 1.01 % ID/g; Biodistribution: Stomach (3 h p.i.): 0.84 % ID/g; Biodistribution: Testes (3 h p.i.): 2.07 % ID/g; Biodistribution: Thyroid (3 h p.i.): 2.09 % ID/g; Biodistribution: Urine (3 h p.i.): 84.38 % ID/g; Biodistribution: kidney (3 h p.i.): 10.94 % ID/g |
| O=C([O-])CN1CCN(CC(=O)[O-])CCN(CC(=O)NCCCCC(NC(=O)CNC(=O)CCCc2ccc([N+](=O)[O-])cc2)C(=O)NCC(=O)NCC2CCC(C(=O)NC(Cc3c4ccccc4cc4ccccc34)C(=O)NCCCCC(NC(=O)NC(CC(F)C(=O)O)C(=O)O)C(=O)O)CC2)CCN(CC(=O)[O-])CC1.[68Ga+3] (centres unmarked) [^68Ga-CCZ02025] ({Butanoyl(4-(4-NO2Ph))}-G[ξK](DOTA)G[X1][ξAla(9-anthryl)]-X2) | 5.96 | 19.40 | 1.01 | 0.30 | 2.74 | 4.13 | 1.93 | 9.19 | 4.07 | 8.79 | 1.48 | 1.89 | 3.24 | 2.55 | 1.90 | 0.59 | 2.65 | 4.11 | 104.40 | 14.01 | Biodistribution: Adrenal gland (3 h p.i.): 4.26 % ID/g; Biodistribution: Blood (3 h p.i.): 13.83 % ID/g; Biodistribution: Bone (3 h p.i.): 1.27 % ID/g; Biodistribution: Brain (3 h p.i.): 0.22 % ID/g; Biodistribution: Fat (3 h p.i.): 1.79 % ID/g; Biodistribution: Heart (3 h p.i.): 2.86 % ID/g; Biodistribution: Intestine (3 h p.i.): 1.12 % ID/g; Biodistribution: LNCaP tumor (3 h p.i.): 18.79 % ID/g; Biodistribution: Liver (3 h p.i.): 3.21 % ID/g; Biodistribution: Lungs (3 h p.i.): 5.21 % ID/g; Biodistribution: Muscle (3 h p.i.): 0.95 % ID/g; Biodistribution: Pancreas (3 h p.i.): 1.13 % ID/g; Biodistribution: Salivary gland (3 h p.i.): 2.47 % ID/g; Biodistribution: Seminal gland (3 h p.i.): 1.83 % ID/g; Biodistribution: Spleen (3 h p.i.): 1.17 % ID/g; Biodistribution: Stomach (3 h p.i.): 0.57 % ID/g; Biodistribution: Testes (3 h p.i.): 2.80 % ID/g; Biodistribution: Thyroid (3 h p.i.): 2.41 % ID/g; Biodistribution: Urine (3 h p.i.): 101.55 % ID/g; Biodistribution: kidney (3 h p.i.): 9.90 % ID/g |
